# In PMC6615598, “Novel antibiotics effective against gram-positive and -negative multi-resistant bacteria with limited resistance” (PLoS Biology, 2019):
# Several values for one entry are separate records, joined by “and”; a condition that tells them apart may be missing. Equal entries are not always repeated. Starred links: 1 amine or outer side, 2 acyl side, 3 side chain; linkers in the order of their positions; H or OH if unused. Non-standard residues stand in square brackets, D forms with d. Residues, ends and D or L forms follow the SMILES beside them. azaβ3(1Nal) = O=C(CN(Cc1cccc2ccccc12)N[*:1])[*:2]
# Key:
# MRSA [1] = test: Severe sepsis mouse model, survival; type: in vivo; details: mice, approximately 2 × 10^9 CFUs MRSA IV; 4 IV doses of 0.5 mg.kg^−1 at 2, 24, 48, 72 h
# Description: Tolerance and toxicity studies were done on male Swiss mice (CD-1 Crl: CD-1 [ICR] IGS; Charles River). These were 7 to 10 weeks old and weighed an average of 37.2 g. All experimental protocols were approved by the Adaptive Therapeutics Animal Care and Use Committee (APAFiS #4508-2016031l15541258 v2). For the sepsis model, we used female Swiss mice (Janvier Labs), 6 to 8 weeks old and weighing approximately 30 g. Experiments were monitored in the ARCHE-BIOSIT animal lab in Rennes, in biological duplicate. We used Groups of 5 mice for the mild and the severe sepsis models with MRSA. Mice were IV inoculated with 150 μl of MRSA suspensions in 0.9% NaCl containing approximately 5 × 10^8 CFUs for the “mild” sepsis and approximately 2 × 10^9 CFUs for the “severe” sepsis, respectively. […] Mice survival was monitored for 4 d (“severe” sepsis) or 14 d (“mild” sepsis), and the statistical significance of difference(s) between the groups was evaluated using the Wilcoxon test. P < 0.05 was considered significant. Two weeks (“mild” sepsis) or 4 d (“severe” sepsis) after inoculation, mice were euthanized with CO2.
# S. aureus Newman = test: SEM and TEM after treatment at MIC; type: cell-based; details: S. aureus treated at the MIC, 2 h 37°C
# Experimental: S. aureus Newman and E. coli K12 were cultured in MHB to an OD600 of 0.5 (10^8 CFU/ml). After adding peptides, samples were incubated at 160 rpm for 2 h at 37°C before centrifugation. Bacteria were exposed to pseudopeptide concentrations at their MIC. Untreated controls were prepared under identical conditions. Cell pellets were obtained after cell suspension centrifugation (1,000–3,000g for 5 min). […] S. aureus Newman samples were embedded in 2% agar and dehydrated in a graded series of increasing ethanol concentrations (50, 70, 90, and 100% v/v). For E. coli K12, the samples were placed on a 0.2 μm filter disc, dehydrated in a series of increasing ethanol concentrations, and vacuum dried for 48 h. For SEM observation, specimens were obtained after preparation with a Leica EM CPD300 critical point dryer. A Leica EM ACE200 was used for gold palladium metallization for 30 s. Sample observation was performed with a JEOL JSM-6301F microscope at 7 kV with a 15 mm work distance. TEM was also used to visualize the morphology and intracellular alteration of peptide-treated bacterial cells. For this, bacteria were grown and incubated with AMPs as described above for SEM sample preparation, and controls were prepared in standard medium. Cell pellets were also prepared as described above. […]
# MRSA [2] = test: Membrane permeation, SYTO Green fluorescence; type: cell-based, S. aureus
# Experimental: Permeation assays were also performed on gram-positive S. aureus membranes (MSSA and MRSA) by fluorescence assay [31] with SYTO Green nucleic acid stain (Life Technologies) in black flat-bottom 96-well microtiter plates (Greiner) in biological triplicate. Bacteria were grown to 0.3–0.4 OD600 in CAMHB at 37°C and centrifuged at 3,500 tr/min for 10 min. The pellet was washed and dissolved in PBS to an absorbance of 0.4 at 600 nm (approximately 2.10^8 CFU/ml). SYTO Green was added to the cells at a 5 μM final concentration, with dark incubation for 30 min. The amount of 50 μL of bacteria/SYTO Green mixture was added to each well containing compounds serially diluted in PBS, and fluorescence was measured at 37°C for up to 12 h using a spectrophotometer (BIOTEK, Tungsten-Halogen Lamp) with 485 nm excitation and 525 nm emission wavelengths.
# S. aureus = test: Intracellular ATP levels of SCV versus normal colonies from skin abscesses; type: cell-based; details: individual values
# Experimental: For the cutaneous abscess model, the mice were randomly divided into 5 sets. The mice were anesthetized with isoflurane, their dorsal fur shaved, and their skin disinfected with 70% ethanol. An overnight culture of S. aureus MRSA or P. aeruginosa LESB58 was washed with 0.9% NaCl, and then a subcutaneous injection of 2 × 10^9 CFUs and an equal amount of sterile Cytodex microcarrier beads (20 mg.ml^−1, Sigma) for S. aureus MRSA, or 10^8 CFUs for P. aeruginosa were injected into the shaved area. […] Mice were monitored every day and then euthanized with CO2 on Day 6 or on Day 3. Abscesses were excised, measured, and homogenized in PBS using an Ultra-Turax. Serial dilutions of the samples were plated on BHI (MRSA) or 2YT medium (LESB58) plates and then incubated overnight at 37°C. Afterward, the CFUs were counted and expressed as log CFU/ml. Dermonecrosis areas were calculated according to the formula π × L × W. ATP levels were determined with an ATP assay kit (Promega) according to manufacturer instructions on sets of 5 colonies harboring the SCV phenotype, and sets of 5 colonies harboring a normal phenotype, after growth on BHI plates.
structure (smiles),measurement,setting,value
CC(C)[C@@H]1NC(=O)[C@H](CCCNC(=N)N)NC(=O)[C@H](CCCNC(=N)N)NC(=O)CN(Cc2cccc3ccccc23)NC(=O)[C@H](Cc2ccccc2)NC(=O)CN(Cc2cccc3ccccc23)NC(=O)[C@H](CCCCN)NC1=O [Pep19] (cyclo([azaβ3(1Nal)]F[azaβ3(1Nal)]RRVK)),Survival in severe sepsis,MRSA [1],protected the infected animals
same,Cell wall erosion by electron microscopy,S. aureus Newman,eroded
same,Membrane permeation (leakage),MRSA [2],most active
same,"Intracellular ATP level, 'normal growing'",S. aureus; 'normal growing' colonies from MRSA abscesses of mice treated IV with 1.5 mg.kg-1,128624 AU and 143636 AU and 122235 AU and 111054 AU and 122356 AU
same,"Intracellular ATP level, SCV",S. aureus; SCV from MRSA abscesses of mice treated IV with 1.5 mg.kg-1,21955.1 AU and 16114.9 AU and 17911.8 AU and 16800 AU and 28088.5 AU
